From patent US8952024B2, “Herbicidal pyrimidone derivatives” (E I du Pont de Nemours and Company, priority 2009, dated 2015)

Assays:
Assay in all cases: Test B pre-/postemergence plant response
Format in all cases: in vivo
Conditions in all cases: Postemergence
[1] = system: Italian ryegrass (Lolium multiflorum)
Summary of the method: (§1)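 Seeds were sown in loam soil/sand blend and treated preemergence with compound in non-phytotoxic solvent mixture containing surfactant; postemergence sprays, same formulation, went onto plants 2 to 18 cm (1- to 4-leaf stage) in peat-based planting medium. Greenhouse 13 to 15 days, then visual rating versus untreated controls, 0 (no effect) to 100 (complete control).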

[2] = system: Surinam grass (Brachiaria decumbens)
Summary of the method: as §1

[3] = system: blackgrass (Alopecurus myosuroides)
Summary of the method: as §1

corn (Zea mays) = system: corn (Zea mays)
Summary of the method: as §1

[4] = system: downy bromegrass (Bromus tectorum)
Summary of the method: as §1

[5] = system: goosegrass (Eleusine indica)
Summary of the method: as §1

[6] = system: johnsongrass (Sorghum halepense)
Summary of the method: as §1

kochia (Kochia scoparia) = system: kochia (Kochia scoparia)
Summary of the method: as §1

[7] = system: lambsquarters (Chenopodium album)
Summary of the method: as §1

[8] = system: large crabgrass (Digitaria sanguinalis)
Summary of the method: as §1

[9] = system: pigweed (Amaranthus retroflexus)
Summary of the method: as §1

[10] = system: ragweed (common ragweed, Ambrosia elatior)
Summary of the method: as §1

soybean (Glycine max) = system: soybean (Glycine max)
Summary of the method: as §1

[11] = system: velvetleaf (Abutilon theophrasti)
Summary of the method: as §1

[12] = system: wheat (Triticum aestivum)
Summary of the method: as §1

wild oat (Avena fatua) = system: wild oat (Avena fatua)
Summary of the method: as §1

[13] = system: woolly cupgrass (Eriochloa villosa)
Summary of the method: as §1

[14] = system: yellow nutsedge (Cyperus esculentus)
Summary of the method: as §1

[15] = 31 g ai/ha, 0 to 100 scale (0 no effect, 100 complete control)
[16] = 250 g ai/ha, scale 0 to 100 (0 no effect, 100 complete control), 13 to 15 days
[17] = 62 g ai/ha, scale 0 to 100 (0 no effect, 100 complete control)
[18] = 125 g ai/ha, scale 0 to 100 (0 no effect, 100 complete control)

CCCn1c(-c2ccccc2)ncc(C(=O)C2=C(O)C3CCC(C3)C2=O)c1=O (stereo not shown) [Compound 226]
Plant response rating, Ryegrass, Italian [1, 15]: 0 | Plant response rating, Ryegrass, Italian [1, 16]: 20 | Plant response rating, Ryegrass, Italian [1, 17]: 0 | Plant response rating, Surinam Grass [2, 15]: 75 | Plant response rating, Surinam Grass [2, 16]: 85 | Plant response rating, Surinam Grass [2, 17]: 75 | Plant response rating, Blackgrass [3, 15]: 5 | Plant response rating, Blackgrass [3, 18]: 40 | Plant response rating, Blackgrass [3, 16]: 60 | Plant response rating, Blackgrass [3, 17]: 30 | Plant response rating, Corn (corn (Zea mays); [15]): 75 | Plant response rating, Corn (corn (Zea mays); [18]): 98 | Plant response rating, Corn (corn (Zea mays); [16]): 98 | Plant response rating, Corn (corn (Zea mays); [17]): 80 | Plant response rating, Bromegrass, Downy [4, 15]: 0 | Plant response rating, Bromegrass, Downy [4, 18]: 5 | Plant response rating, Bromegrass, Downy [4, 16]: 30 | Plant response rating, Bromegrass, Downy [4, 17]: 0 | Plant response rating, Goosegrass [5, 15]: 80 | Plant response rating, Goosegrass [5, 18]: 85 | Plant response rating, Goosegrass [5, 16]: 85 | Plant response rating, Goosegrass [5, 17]: 80 | Plant response rating, Johnsongrass [6, 15]: 85 | Plant response rating, Johnsongrass [6, 18]: 100 | Plant response rating, Johnsongrass [6, 16]: 100 | Plant response rating, Johnsongrass [6, 17]: 85 | Plant response rating, Kochia (kochia (Kochia scoparia); [15]): 80 | Plant response rating, Kochia (kochia (Kochia scoparia); [18]): 100 | Plant response rating, Kochia (kochia (Kochia scoparia); [16]): 100 | Plant response rating, Kochia (kochia (Kochia scoparia); [17]): 85 | Plant response rating, Lambsquarters [7, 15]: 90 | Plant response rating, Lambsquarters [7, 18]: 95 | Plant response rating, Lambsquarters [7, 16]: 98 | Plant response rating, Lambsquarters [7, 17]: 90 | Plant response rating, Crabgrass, Large [8, 15]: 85 | Plant response rating, Crabgrass, Large [8, 18]: 95 | Plant response rating, Crabgrass, Large [8, 16]: 98 | Plant response rating, Crabgrass, Large [8, 17]: 85 | Plant response rating, Pigweed [9, 15]: 75 | Plant response rating, Pigweed [9, 16]: 98 | Plant response rating, Pigweed [9, 17]: 85 | Plant response rating, Ragweed [10, 15]: 80 | Plant response rating, Ragweed [10, 16]: 90 | Plant response rating, Ragweed [10, 17]: 85 | Plant response rating, Soybean (soybean (Glycine max); [15]): 95 | Plant response rating, Soybean (soybean (Glycine max); [16]): 100 | Plant response rating, Soybean (soybean (Glycine max); [17]): 98 | Plant response rating, Velvetleaf [11, 15]: 85 | Plant response rating, Velvetleaf [11, 16]: 98 | Plant response rating, Velvetleaf [11, 17]: 85 | Plant response rating, Wheat [12, 15]: 10 | Plant response rating, Wheat [12, 16]: 30 | Plant response rating, Wheat [12, 17]: 15 | Plant response rating, Oat, Wild (wild oat (Avena fatua); [15]): 25 | Plant response rating, Oat, Wild (wild oat (Avena fatua); [16]): 50 | Plant response rating, Oat, Wild (wild oat (Avena fatua); [17]): 30 | Plant response rating, Cupgrass, Woolly [13, 15]: 80 | Plant response rating, Cupgrass, Woolly [13, 18]: 85 | Plant response rating, Cupgrass, Woolly [13, 16]: 95 | Plant response rating, Cupgrass, Woolly [13, 17]: 80 | Plant response rating, Nutsedge, Yellow [14, 15]: 55 | Plant response rating, Nutsedge, Yellow [14, 18]: 70 | Plant response rating, Nutsedge, Yellow [14, 16]: 75 | Plant response rating, Nutsedge, Yellow [14, 17]: 65
